Assay results: US20230167073A1 (Teijin Pharma Limited, priority 2020, published 2023)

The compounds below were run against T1, Human TRPC6 (Homo sapiens, UniProt Q9Y210) (assay: Evaluation of TRPC6 channel inhibitory activity (1), FLIPR Calcium 5 Assay Kit, OAG stimulation (Compound Nos. 1-1293)). Conditions: Human TRPC6 stably-expressing cells, OAG 30 μM, FLIPR Calcium 5 Assay Kit; read-out: Inhibitory activity (pIC50 class) (converted).
T1 construct: expressed in transfected cells
T1 sequence (Q9Y210 1-931): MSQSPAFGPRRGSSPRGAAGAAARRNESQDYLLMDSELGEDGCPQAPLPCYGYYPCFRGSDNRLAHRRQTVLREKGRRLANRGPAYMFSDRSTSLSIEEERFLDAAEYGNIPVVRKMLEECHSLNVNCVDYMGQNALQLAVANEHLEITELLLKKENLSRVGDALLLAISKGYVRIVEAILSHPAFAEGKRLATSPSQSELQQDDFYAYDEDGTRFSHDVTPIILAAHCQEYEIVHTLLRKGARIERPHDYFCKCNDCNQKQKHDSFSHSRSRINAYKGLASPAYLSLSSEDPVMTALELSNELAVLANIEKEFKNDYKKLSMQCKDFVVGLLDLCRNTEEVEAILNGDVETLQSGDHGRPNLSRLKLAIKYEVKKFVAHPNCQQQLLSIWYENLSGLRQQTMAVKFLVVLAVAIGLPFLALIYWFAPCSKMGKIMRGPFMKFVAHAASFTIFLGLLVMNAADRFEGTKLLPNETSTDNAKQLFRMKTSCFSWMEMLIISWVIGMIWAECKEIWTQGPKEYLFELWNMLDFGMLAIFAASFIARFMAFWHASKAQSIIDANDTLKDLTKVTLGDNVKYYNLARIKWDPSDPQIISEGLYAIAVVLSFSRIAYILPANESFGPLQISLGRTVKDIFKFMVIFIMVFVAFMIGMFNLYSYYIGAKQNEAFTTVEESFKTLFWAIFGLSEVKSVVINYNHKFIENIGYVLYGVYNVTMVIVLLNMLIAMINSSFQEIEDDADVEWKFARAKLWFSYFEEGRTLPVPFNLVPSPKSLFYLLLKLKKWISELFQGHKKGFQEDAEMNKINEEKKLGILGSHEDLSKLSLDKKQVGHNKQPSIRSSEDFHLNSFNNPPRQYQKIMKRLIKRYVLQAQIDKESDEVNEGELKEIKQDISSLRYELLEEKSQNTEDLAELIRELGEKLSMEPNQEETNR
Assay type: cell-based
Method in brief: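 The FLIPR signal is maximum fluorescence after 30 μM OAG minus minimum before compound, measured in a human TRPC6 stable line loaded with Calcium 5 dye. Compounds were preincubated 20 min. pIC50 came from four-parameter logistic fitting of inhibition rates and is given as symbol ranges.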

First: Cc1nc(Oc2cc(C#N)ccc2-c2ncc([C@H](O)CN)cn2)cc(-c2ccccc2)n1 [compound 526, 4-[5-[(1S)-2-amino-1-hydroxyethyl]pyrimidin-2-yl]-3-(2-methyl-6-phenylpyrimidin-4-yl)oxybenzonitrile]
Second: Cn1nc(-c2ncccn2)cc1Oc1cc(C#N)ccc1-c1ccc([C@H](O)CN)cn1 [compound 540, 4-[5-[(1S)-2-amino-1-hydroxyethyl]pyridin-2-yl]-3-(2-methyl-5-pyrimidin-2-ylpyrazol-3-yl)oxybenzonitrile]
The IC50 of the first is lower: under 10 nM for the first, over 1000 nM for the second.

Compared with `Cc1cc(Oc2cc(C#N)ccc2-c2ccc([C@H](O)CN)cn2)cc(N2C[C@@H]3C[C@H]2CO3)n1` [compound 527, 4-[5-[(1S)-2-amino-1-hydroxyethyl]pyridin-2-yl]-3-[2-methyl-6-[(1S,4S)-2-oxa-5-azabicyclo[2.2.1]heptan-5-yl]pyridin-4-yl]oxybenzonitrile], `Cc1cc(Oc2cc(C#N)ccc2-c2ncc([C@H](O)CN)cn2)cc(N2C[C@@H]3C[C@H]2CO3)n1` [compound 528, 4-[5-[(1S)-2-amino-1-hydroxyethyl]pyrimidin-2-yl]-3-[2-methyl-6-[(1S,4S)-2-oxa-5-azabicyclo[2.2.1]heptan-5-yl]pyridin-4-yl]oxybenzonitrile] is higher in IC50: under 10 nM for the first, 10 to 1000 nM for the second.

`Cc1cc(Oc2cc(C#N)ccc2-c2ccc([C@H](O)CN)cn2)cc(N2CCO[C@@H](C)C2)n1` [compound 529, 4-[5-[(1S)-2-amino-1-hydroxyethyl]pyridin-2-yl]-3-[2-methyl-6-[(2S)-2-methylmorpholin-4-yl]pyridin-4-yl]oxybenzonitrile] and `Cc1cc(Oc2cc(C#N)ccc2-c2ncc([C@H](O)CN)cn2)cc(N2CCO[C@@H](C)C2)n1` [compound 530, 4-[5-[(1S)-2-amino-1-hydroxyethyl]pyrimidin-2-yl]-3-[2-methyl-6-[(2S)-2-methylmorpholin-4-yl]pyridin-4-yl]oxybenzonitrile] cannot be ordered by IC50: under 10 nM for the first, under 10 nM for the second.

`Cc1cc(Oc2cc(C#N)ccc2-c2ccc([C@H](O)CN)cn2)cc(N2CCOC(C)(C)C2)n1` [compound 531, 4-[5-[(1S)-2-amino-1-hydroxyethyl]pyridin-2-yl]-3-[2-(2,2-dimethylmorpholin-4-yl)-6-methylpyridin-4-yl]oxybenzonitrile] and `Cc1cc(Oc2cc(C#N)ccc2-c2ncc([C@H](O)CN)cn2)cc(N2CCOC(C)(C)C2)n1` [compound 532, 4-[5-[(1S)-2-amino-1-hydroxyethyl]pyrimidin-2-yl]-3-[2-(2,2-dimethylmorpholin-4-yl)-6-methylpyridin-4-yl]oxybenzonitrile] cannot be ordered by IC50: under 10 nM for the first, under 10 nM for the second.

First: N#Cc1ccc(-c2ncc(CN)cn2)c(Oc2cnnc(N3CCOCC3)c2)c1 [compound 534, 4-[5-(aminomethyl)pyrimidin-2-yl]-3-(6-morpholin-4-ylpyridazin-4-yl)oxybenzonitrile]
Second: N#Cc1ccc(-c2ncc(CN)cn2)c(Oc2cc(N3CCOCC3)cnn2)c1 [compound 535, 4-[5-(aminomethyl)pyrimidin-2-yl]-3-(5-morpholin-4-ylpyridazin-3-yl)oxybenzonitrile]
The IC50 of the first is lower: 10 to 1000 nM for the first, over 1000 nM for the second.

Compared with `Cn1nc(-c2nccs2)cc1Oc1cc(C#N)ccc1-c1ccc([C@H](O)CN)cn1` [compound 536, 4-[5-[(1S)-2-amino-1-hydroxyethyl]pyridin-2-yl]-3-[2-methyl-5-(1,3-thiazol-2-yl)pyrazol-3-yl]oxybenzonitrile], `CN(C)c1cc(Oc2cc(C#N)ccc2-c2ccc([C@H](O)CN)cn2)n(C)n1` [compound 546, 4-[5-[(1S)-2-amino-1-hydroxyethyl]pyridin-2-yl]-3-[5-(dimethylamino)-2-methylpyrazol-3-yl]oxybenzonitrile] is higher in IC50: under 10 nM for the first, 10 to 1000 nM for the second.

First: Cc1cc(Oc2cc(C#N)ccc2-c2ccc(C3(O)CNC3)cn2)cc(N2CCOCC2)n1 [compound 537, 4-[5-(3-hydroxyazetidin-3-yl)pyridin-2-yl]-3-(2-methyl-6-morpholin-4-ylpyridin-4-yl)oxybenzonitrile]
Second: Cc1cc(Oc2cc(C#N)ccc2-c2ccc(C3(F)CNC3)cn2)cc(N2CCOCC2)n1 [compound 538, 4-[5-(3-fluoroazetidin-3-yl)pyridin-2-yl]-3-(2-methyl-6-morpholin-4-ylpyridin-4-yl)oxybenzonitrile]
The IC50 of the first is higher: over 1000 nM for the first, 10 to 1000 nM for the second.

First: Cc1cc(Oc2cc(C#N)ccc2-c2ccc(C3OCCCC3N)cn2)cc(N2CCOCC2)n1 (stereo not shown) [compound 539, 4-[5-(3-aminooxan-2-yl)pyridin-2-yl]-3-(2-methyl-6-morpholin-4-ylpyridin-4-yl)oxybenzonitrile]
Second: Cc1cc(Oc2cc(C#N)ccc2-c2ccc([C@H](O)CN)cn2)cc(N2CCOC[C@H]2C)n1 [compound 550, 4-[5-[(1S)-2-amino-1-hydroxyethyl]pyridin-2-yl]-3-[2-methyl-6-[(3R)-3-methylmorpholin-4-yl]pyridin-4-yl]oxybenzonitrile]
The IC50 of the first is higher: 10 to 1000 nM for the first, under 10 nM for the second.

`Cn1nc(N2CCCCC2)cc1Oc1cc(C#N)ccc1-c1ccc(CCN)cn1` [compound 541, 4-[5-(2-aminoethyl)pyridin-2-yl]-3-(2-methyl-5-piperidin-1-ylpyrazol-3-yl)oxybenzonitrile] and `Cn1nc(N2CCCC2)cc1Oc1cc(C#N)ccc1-c1ccc(CCN)cn1` [compound 542, 4-[5-(2-aminoethyl)pyridin-2-yl]-3-(2-methyl-5-pyrrolidin-1-ylpyrazol-3-yl)oxybenzonitrile] cannot be ordered by IC50: under 10 nM for the first, under 10 nM for the second.

First: CN(C)c1cc(Oc2cc(C#N)ccc2-c2ccc(CCN)cn2)n(C)n1 [compound 543, 4-[5-(2-aminoethyl)pyridin-2-yl]-3-[5-(dimethylamino)-2-methylpyrazol-3-yl]oxybenzonitrile]
Second: CC(=O)Nc1cc(Oc2cc(C#N)ccc2-c2ccc(CCN)cn2)n(C)n1 [compound 547, N-[5-[2-[5-(2-aminoethyl)pyridin-2-yl]-5-cyanophenoxy]-1-methylpyrazol-3-yl]acetamide]
The IC50 of the first is lower: under 10 nM for the first, 10 to 1000 nM for the second.

Compared with `Cn1nc(N2CCCCC2)cc1Oc1cc(C#N)ccc1-c1ccc([C@H](O)CN)cn1` [compound 544, 4-[5-[(1S)-2-amino-1-hydroxyethyl]pyridin-2-yl]-3-(2-methyl-5-pipeddin-1-ylpyrazol-3-yl)oxybenzonitrile], `Cn1nc(N2CCCC2)cc1Oc1cc(C#N)ccc1-c1ccc([C@H](O)CN)cn1` [compound 545, 4-[5-[(1S)-2-amino-1-hydroxyethyl]pyridin-2-yl]-3-(2-methyl-5-pyrrolidin-1-ylpyrazol-3-yl)oxybenzonitrile] is higher in IC50: under 10 nM for the first, 10 to 1000 nM for the second.

First: CC(=O)Nc1cc(Oc2cc(C#N)ccc2-c2ccc([C@H](O)CN)cn2)n(C)n1 [compound 548, N-[5-[2-[5-[(1S)-2-amino-1-hydroxyethyl]pyridin-2-yl]-5-cyanophenoxy]-1-methylpyrazol-3-yl]acetamide]
Second: CC(C)Nc1cc(Oc2cc(C#N)ccc2-c2ccc([C@H](O)CN)cn2)n(C)n1 [compound 549, 4-[5-[(1S)-2-amino-1-hydroxyethyl]pyridin-2-yl]-3-[2-methyl-5-(propan-2-ylamino)pyrazol-3-yl]oxybenzonitrile]
The IC50 of the first is higher: over 1000 nM for the first, 10 to 1000 nM for the second.

First: Cn1nc(C2CC2)cc1Oc1cc(C#N)ccc1-c1cc(C(=O)NCCN)ccn1 [compound 551, N-(2-aminoethyl)-2-[4-cyano-2-(5-cyclopropyl-2-methylpyrazol-3-yl)oxyphenyl]pyridine-4-carboxamide]
Second: Cn1nc(C2CC2)cc1Oc1cc(C#N)ccc1-c1cc(C(=O)N2CCC(N)CC2)ccn1 [compound 553, 4-[4-(4-aminopiperidine-1-carbonyl)pyridin-2-yl]-3-(5-cyclopropyl-2-methylpyrazol-3-yl)oxybenzonitrile]
The IC50 of the first is lower: 10 to 1000 nM for the first, over 1000 nM for the second.

`Cn1nc(C2CC2)cc1Oc1cc(C#N)ccc1-c1cc(C(=O)N2CCNCC2)ccn1` [compound 552, 3-(5-cyclopropyl-2-methylpyrazol-3-yl)oxy-4-[4-(piperazine-1-carbonyl)pyridin-2-yl]benzonitrile] and `Cn1nc(C2CC2)cc1Oc1cc(C#N)ccc1-c1cc(C(=O)N2CCC[C@@H](N)C2)ccn1` [compound 554, 4-[4-[(3R)-3-aminopiperidine-1-carbonyl]pyridin-2-yl]-3-(5-cyclopropyl-2-methylpyrazol-3-yl)oxybenzonitrile] cannot be ordered by IC50: over 1000 nM for the first, over 1000 nM for the second.
